The values below come from ChEMBL document CHEMBL1221354, “Synthesis of polyhydroxylated aromatics having amidation of piperazine nitrogen as HIV-1 integrase inhibitor” (Bioorg Med Chem Lett, 2010).

pIC50: −log10 of the molar value.

Human immunodeficiency virus type 1 integrase, sequence (Q7ZJM1 whole entry): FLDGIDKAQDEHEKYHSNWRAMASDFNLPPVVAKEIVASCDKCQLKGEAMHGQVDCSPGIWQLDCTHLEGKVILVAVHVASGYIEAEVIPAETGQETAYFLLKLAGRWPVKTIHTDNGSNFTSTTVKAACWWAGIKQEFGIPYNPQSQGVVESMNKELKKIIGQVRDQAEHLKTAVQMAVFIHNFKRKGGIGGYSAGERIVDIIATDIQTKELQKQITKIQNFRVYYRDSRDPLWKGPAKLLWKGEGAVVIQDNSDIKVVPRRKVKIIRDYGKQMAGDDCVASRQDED

This assay addresses Human immunodeficiency virus type 1 integrase (Human immunodeficiency virus 1, UniProt Q7ZJM1). The assay is described as follows: Inhibition of HIV1 integrase strand transfer activity after 1 hr.
A word on the pIC50: it is the negative decadic logarithm of the IC50, by convention in mol/L. `O=C(NCCCN1CCN(C(=O)/C=C/c2ccccc2)CC1)c1ccc(O)c(O)c1` had a pIC50 below 4.00.

`Cc1ccc(/C=C/C(=O)N2CCN(CCCNC(=O)c3ccc(O)c(O)c3)CC2)cc1` had a pIC50 below 4.00.

In turn, `O=C(NCCCN1CCN(C(=O)/C=C/c2ccc(Cl)cc2)CC1)c1ccc(O)c(O)c1` gave a pIC50 below 4.00.

For `O=C(NCCCN1CCN(C(=O)/C=C/c2ccccc2Cl)CC1)c1ccc(O)c(O)c1`, the pIC50 was below 4.00.

`O=C(NCCCN1CCN(C(=O)/C=C/c2cccc(O)c2)CC1)c1ccc(O)c(O)c1` gave a pIC50 below 4.00.

With `O=C(NCCCN1CCN(C(=O)/C=C/c2ccccc2)CC1)c1cc(O)c(O)c(O)c1`, the pIC50 was 4.89.

With `Cc1ccc(/C=C/C(=O)N2CCN(CCCNC(=O)c3cc(O)c(O)c(O)c3)CC2)cc1`, the pIC50 is 4.76.

Compound `O=C(NCCCN1CCN(C(=O)/C=C/c2ccc(Cl)cc2)CC1)c1cc(O)c(O)c(O)c1` gave a negative logarithm of the IC50 (pIC50) of 4.60.

For `O=C(NCCCN1CCN(C(=O)/C=C/c2ccccc2Cl)CC1)c1cc(O)c(O)c(O)c1`, the pIC50 was 4.72.

For `O=C(NCCCN1CCN(C(=O)/C=C/c2ccccc2[N+](=O)[O-])CC1)c1cc(O)c(O)c(O)c1`, the pIC50 was 4.50.

The compound `O=C(NCCCN1CCN(C(=O)/C=C/c2cccc(O)c2)CC1)c1cc(O)c(O)c(O)c1` showed a pIC50 of 4.81.

In the case of `O=C(O)C(=O)CC(=O)c1cc(OCc2ccccc2)cc(OCc2ccccc2)c1`, the negative logarithm of the IC50 (pIC50) was 6.11.
